From patent US20240381872A1, “SUBSTITUTED 2,3-DIHYDRO[1,3]THIAZOLO[4,5-B]PYRIDINES, SALTS THEREOF AND THEIR USE AS HERBICIDALLY ACTIVE SUBSTANCES” (BAYER AKTIENGESELLSCHAFT, priority 2021, published 2024)

What was measured:
Format in all cases: in vivo
[1] = system: Stellaria media (STEME); assay: Herbicidal pre-emergence action, section A (Table A9); conditions: application rate 320 g/ha
How it was run: (§1)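 Sandy loam pots, seeds covered with soil, treated on the soil surface with aqueous WP or EC preparations containing 0.5% additive (600 l/ha). Visual damage rating after ca. 3 weeks in greenhouse; scale 0% (as control) to 100% (plants died off).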

[2] = system: Amaranthus retroflexus (AMARE); assay: Herbicidal pre-emergence action, section A (Table A11)
How it was run: as §1

[3] = system: Poa annua (POAAN); assay: Herbicidal post-emergence action, section B (Table B7); conditions: application rate 1280 g/ha; visual rating about 3 weeks after treatment vs untreated controls
Experimental: (§2) Seeds of mono- and dicotyledonous weed plants were placed in plastic pots in sandy loam soil (doubly sown with in each case one species of mono- or dicotyledonous weed plants per pot), covered with soil and cultivated in a greenhouse under controlled growth conditions. 2 to 3 weeks after sowing, the test plants were treated at the one-leaf stage. The compounds of the invention, formulated in the form of wettable powders (WP) or as emulsion concentrates (EC), were applied onto the green parts of the plants as aqueous suspension or emulsion with addition of 0.5% additive at a water application rate of 600 liters per hectare (converted). After the test plants had been kept in the greenhouse under optimum growth conditions for about 3 weeks, the activity of the preparations was rated visually in comparison to untreated controls. For example, 100% activity=the plants have died, 0% activity=like control plants.

[4] = system: Echinochloa crus-galli (ECHCG); assay: Herbicidal pre-emergence action, section A (Table A3); conditions: visual grading after ca. 3 weeks vs untreated controls
How it was run: as §1

[5] = system: Lolium rigidum (LOLRI); assay: Herbicidal pre-emergence action, section A (Table A5); conditions: application rate 320 g/ha; visual grading after ca. 3 weeks vs untreated controls
How it was run: as §1

[6] = system: Amaranthus retroflexus (AMARE); assay: Herbicidal post-emergence action, section B (Table B11); conditions: application rate 1280 g/ha; visual rating about 3 weeks after treatment vs untreated controls
How it was run: (§3)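 In this greenhouse assay, compounds in WP or EC form were applied post-emergence with 0.5% additive at a water rate of 600 liters per hectare. Treatment took place at the one-leaf stage, and injury was rated visually about 3 weeks later against untreated plants.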

[7] = system: Matricaria inodora (MATIN); assay: Herbicidal pre-emergence action, section A (Table A6); conditions: application rate 1280 g/ha; visual grading after ca. 3 weeks vs untreated controls
How it was run: as §1

[8] = system: Stellaria media (STEME); assay: Herbicidal post-emergence action, section B (Table B9); conditions: application rate 1280 g/ha; visual rating about 3 weeks after treatment vs untreated controls
How it was run: as §3

[9] = system: Poa annua (POAAN); assay: Herbicidal pre-emergence action, section A (Table A7); conditions: visual grading after ca. 3 weeks vs untreated controls
How it was run: as §1

[10] = system: Setaria viridis (SETVI); assay: Herbicidal pre-emergence action, section A (Table A8); conditions: application rate 1280 g/ha
How it was run: as §1

[11] = system: Veronica persica (VERPE); assay: Herbicidal post-emergence action, section B (Table B10); conditions: application rate 320 g/ha; visual rating about 3 weeks after treatment vs untreated controls
How it was run: as §3

[12] = system: Kochia scoparia (KCHSC); assay: Herbicidal post-emergence action, section B (Table B4); conditions: application rate 320 g/ha; visual rating about 3 weeks after treatment vs untreated controls
How it was run: as §3

[13] = system: Veronica persica (VERPE); assay: Herbicidal pre-emergence action, section A (Table A10); conditions: application rate 1280 g/ha
How it was run: as §1

[14] = system: Digitaria sanguinalis (DIGSA); assay: Herbicidal post-emergence action, section B (Table B12); conditions: application rate 1280 g/ha; visual rating about 3 weeks after treatment vs untreated controls
Experimental: as §2

[15] = system: Setaria viridis (SETVI); assay: Herbicidal post-emergence action, section B (Table B8); conditions: application rate 1280 g/ha; visual rating about 3 weeks after treatment vs untreated controls
Experimental: as §2

[16] = system: Abutilon theophrasti (ABUTH); assay: Herbicidal post-emergence action, section B (Table B1); conditions: application rate 1280 g/ha, rated visually after about 3 weeks
Experimental: as §2

[17] = system: Digitaria sanguinalis (DIGSA); assay: Herbicidal pre-emergence action, section A (Table A12); conditions: application rate 1280 g/ha
How it was run: as §1

[18] = system: Alopecurus myosuroides (ALOMY); assay: Herbicidal pre-emergence action, section A (Table A2); conditions: application rate 1280 g/ha; visual grading after ca. 3 weeks vs untreated controls
Excerpt: (§4) Seeds of mono- and dicotyledonous weed plants were sown in plastic pots (double sowings with one species of mono- and one species of dicotyledonous weed plants per pot), in sandy loam, and covered with soil. The compounds according to the invention, formulated in the form of wettable powders (WP) or as emulsifiable concentrates (EC), were applied to the surface of the covering soil as aqueous suspension or emulsion, with the addition of 0.5% of an additive, at an application rate of 600 l of water per hectare (converted). Following treatment, the pots were placed in a greenhouse and kept under optimum growth conditions for the test plants. The visual grading of the damage to the test plants was carried out after ca. 3 weeks in comparison to untreated controls (herbicidal effect in percent (%): 100% effect=plants have died off, 0% effect=as control plants).

[19] = system: Kochia scoparia (KCHSC); assay: Herbicidal pre-emergence action, section A (Table A4); conditions: visual grading after ca. 3 weeks vs untreated controls
How it was run: as §1

[20] = system: Abutilon theophrasti (ABUTH); assay: Herbicidal pre-emergence action, section A (Table A1); conditions: application rate 1280 g/ha; visual grading after ca. 3 weeks vs untreated controls
Excerpt: as §4

[21] = system: Amaranthus retroflexus (AMARE); assay: Herbicidal pre-emergence action, section C (Table C11); conditions: Amaranthus retroflexus, pre-emergence, 504 h; application rate 320 g/ha; visual grading after ca. 3 weeks; read-out: pre-emergence activity against AMARE in %
Excerpt: Seeds of mono- and dicotyledonous weed plants and crop plants were sown, in plastic or organic planting pots, in sandy loam and covered with soil. The compounds according to the invention, formulated in the form of wettable powders (WP) or as emulsifiable concentrates (EC), were applied to the surface of the covering soil as aqueous suspension or emulsion, with the addition of 0.5% of an additive, at an application rate of 600 l of water/ha (converted). Following treatment, the pots were placed in a greenhouse and kept under optimum growth conditions for the test plants. The visual grading of the damage to the test plants was carried out after ca. 3 weeks in comparison to untreated controls (herbicidal effect in percent (%): 100% effect=plants have died off, 0% effect=as control plants).

[22] = system: Triticum aestivum (TRZAS); assay: Pre-emergence effects on crop plants, section D (Table D2); conditions: application rate 80 g/ha; visual grading after ca. 3 weeks
Excerpt: (§5) Seeds of mono- and dicotyledonous weed plants and crop plants were sown, in plastic or organic planting pots, in sandy loam and covered with soil. The compounds according to the invention, formulated in the form of wettable powders (WP) or as emulsifiable concentrates (EC), were applied to the surface of the covering soil as aqueous suspension or emulsion, with the addition of 0.5% of an additive, at an application rate of 600 l of water/ha (converted).
(§6) Following treatment, the pots were placed in a greenhouse and kept under optimum growth conditions for the test plants. The visual grading of the damage to the test plants was carried out after ca. 3 weeks in comparison to untreated controls (herbicidal effect in percent (%): 100% effect=plants have died off, 0% effect=as control plants).
(§7) Tables D1 to D5 below show the effects of various compounds of the general formula (I) according to Table 1 on various crop plants and an application rate corresponding to 320 g/ha or below obtained by the experimental procedure mentioned above in Biological Examples, Section C.

[23] = system: Zea mays (ZEAMX); assay: Post-emergence effects on crop plants, section F (Table F1); conditions: Zea mays, 504 h, application rate 320 g/ha, read-out: post-emergence activity against ZEAMX in %
Excerpt: (§8) Seeds of mono- and dicotyledonous weed plants and crop plants were sown, in plastic or organic planting pots, in sandy loam, covered with soil and grown in a greenhouse under controlled growth conditions. 2 to 3 weeks after sowing, the test plants were sprayed in the single-leaf stage. The compounds according to the invention, formulated in form of wettable powders (WP) or as emulsifiable concentrates (EC), were sprayed onto the green plant parts as aqueous suspension or emulsion, with the addition of 0.5% of an additive, at an application rate of 600 l of water/ha (converted). The test plants were placed in the greenhouse for ca. 3 weeks under optimum growth conditions, and then the effect of the preparations was assessed visually in comparison with untreated controls (herbicidal effect in percent (%): 100% effect=plants have died off, 0% effect=as control plants). Tables F1 to F4 below show the effects of selected compounds of the general formula (I) according to Table 1 on various crop plants and an application rate corresponding to 320 g/ha or below obtained by the experimental procedure mentioned above.

[24] = system: Triticum aestivum (TRZAS); assay: Post-emergence effects on crop plants, section F (Table F2); conditions: Triticum aestivum, 504 h, application rate 320 g/ha, read-out: post-emergence activity against TRZAS in %
Excerpt: as §8

[25] = system: Glycine max (GLXMA); assay: Post-emergence effects on crop plants, section F (Table F4); conditions: Glycine max, 504 h, application rate 80 g/ha, read-out: post-emergence activity against GLXMA in %
Excerpt: as §8

[26] = system: Glycine max (GLXMA); assay: Pre-emergence effects on crop plants, section D (Table D4); conditions: application rate 80 g/ha; visual grading after ca. 3 weeks
Excerpt: as §5, §6, §7

Cc1ccccc1-c1nc2c(cc1Br)SCN2B1NB(N)N1 [Example I-056]
100%: pre-emergence activity against ECHCG in % ([4]; application rate 1280 g/ha) | pre-emergence activity against LOLRI in % [5] | pre-emergence activity against POAAN in % ([9]; application rate 1280 g/ha) | pre-emergence activity against SETVI in % [10] | pre-emergence activity against DIGSA in % [17] | pre-emergence activity against KCHSC in % ([19]; application rate 1280 g/ha)
90%: pre-emergence activity against STEME in % [1] | pre-emergence activity against AMARE in % ([2]; application rate 320 g/ha) | post-emergence activity against POAAN in % [3] | post-emergence activity against AMARE in % [6] | pre-emergence activity against MATIN in % [7] | post-emergence activity against STEME in % [8] | post-emergence activity against VERPE in % [11] | post-emergence activity against KCHSC in % [12] | pre-emergence activity against VERPE in % [13] | post-emergence activity against DIGSA in % [14] | post-emergence activity against SETVI in % [15] | post-emergence activity against ABUTH in % [16] | pre-emergence activity against ALOMY in % [18]

Cc1cc2c(nc1-c1cccc(C)c1C)N(C(=O)C1(C)CC(Cl)=NO1)CS2 (stereo not drawn) [Example I-138]
90%: pre-emergence activity against ABUTH in % [20] | pre-emergence activity against STEME in % [1] | pre-emergence activity against AMARE in % ([2]; application rate 1280 g/ha) | post-emergence activity against POAAN in % [3] | pre-emergence activity against ECHCG in % ([4]; application rate 320 g/ha) | pre-emergence activity against MATIN in % [7] | post-emergence activity against STEME in % [8] | post-emergence activity against KCHSC in % [12] | post-emergence activity against ABUTH in % [16] | pre-emergence activity against DIGSA in % [17] | pre-emergence activity against KCHSC in % ([19]; application rate 320 g/ha)
100%: post-emergence activity against AMARE in % [6] | pre-emergence activity against POAAN in % ([9]; application rate 320 g/ha) | pre-emergence activity against SETVI in % [10]

Cc1cc2c(nc1-c1cccc(F)c1F)N(S(C)(=O)=O)CS2(=O)=O [Example I-151, 5-(2,3-difluorophenyl)-3-(methylsulfonyl)-6-methyl-2,3-dihydro[1,3]thiazolo[4,5-b]pyridine 1,1-dioxide]
100%: pest or weed control at 320 g/ha [21]
0%: pre-emergence activity against TRZAS in % (crop plant damage) [22] | percent crop plant damage (phytotoxicity) on Zea mays, post-emergence at 320 g/ha [23] | percent crop plant damage (wheat, post-emergence) at 320 g/ha [24] | percent crop plant damage at 80 g/ha [25] | pre-emergence activity against GLXMA in % (crop plant damage) [26]
